Data taken from publication PMC4277420, “Assessment of [^125I]WYE-230949 as a Novel Histamine H3 Receptor Radiopharmaceutical” (PLoS ONE, 2014).
Several values for one entry are separate records, joined by “and”; a condition that tells them apart may be missing. Equal entries are not always repeated.

Legend:
[1] = Ex vivo HPLC analysis of rat plasma and brain samples (% parent compound); assay type: in vivo
Experimental: (§1) Animal experiments were conducted under the UK Animals (Scientific Procedures) Act 1986. This work was approved by the ethical review committee at the University of Glasgow (PPL: 60/3436) prior to the start of study. Naïve male Sprague-Dawley rats (Harlan, UK), weighing 217 to 352 g were either conscious or anaesthetised (2.5–3% isoflurane via a tracheostomy and artificial ventilation in 70/30% N2O/O2) for the duration of the experiment. Anaesthetised rats had their respiration and temperature monitored throughout. [^125I]WYE-230949 was administered via a femoral vein cannula to anaesthetised rats or via the lateral tail vein to conscious rats. The injected dose for each rat was calculated by measuring the syringe in a dose calibrator before and after [^125I]WYE-230949 administration. The radioactive and radiochemical amounts administered to individual rats ranged from 12.6 to 24.5 MBq and 0.32 to 0.70 µg/kg respectively in all in vivo studies.
After intravenous injection of [^125I]WYE-230949 blood samples were obtained by terminal cardiac puncture from anaesthetised rats or via the lateral tail vein from conscious rats at either 30 or 120 min. Rats were then immediately killed by cervical dislocation and the brain removed. Plasma was separated from whole blood by centrifugation and the protein precipitated by combining 400 µl of plasma with 400 µl of ice-cold acetonitrile. A sample (200 µl) of the supernatant was made up to 1 ml with distilled water and injected onto the HPLC column. The brain was homogenised in 2 ml saline, protein precipitated by addition of 2 ml of ice-cold acetonitrile. Samples were then centrifuged (1300 rpm; 200×g) and the supernatant added to 1 ml acetonitrile before being centrifuged again (1300 rpm; 200×g). The acetonitrile was evaporated under a stream of argon gas and the remaining 1 ml injected onto the HPLC column. Analysis of the brain and plasma metabolite samples was performed using the analytical HPLC methodology described. The % parent compound present was calculated.

[2] = Ex vivo biodistribution; assay type: in vivo, rat; conditions: for brain uptake: i.v.
Experimental: as §1
Ex vivo biodistribution studies were performed in both conscious and anaesthetised rats in order to investigate the effect of anaesthesia on [^125I]WYE-230949 uptake. At 30 or 120 min following [^125I]WYE-230949 administration rats were killed by cervical dislocation. These time points were chosen based on the biological half life of [^125I]WYE-230949 determined from microSPECT imaging studies. Serial arterial blood sampling via a femoral artery cannula was performed in anaesthetised rats only. Blood was collected into heparin-coated tubes for analysis of plasma and into EDTA coated tubes for analysis of whole blood. At either 30 or 120 min following [^125I]WYE-230949 administration rats were killed by cervical dislocation and the brain, heart, lungs, kidneys and liver dissected. Samples were counted on a Gamma Scintillation Counter (Packard Cobra II D5010, UK) and counts per minute (cpm) converted to kBq using a standard curve. Radioactivity was corrected for decay of ^125I and expressed per sample weight and as a percentage of injected dose (%ID/g tissue).

[3] = target: T1, histamine H3 receptor (Rattus norvegicus, UniProt Q9QYN8); experiment: In vitro autoradiography on rat brain sections; assay type: binding; conditions: 5 nM radioligand, non-specific with 5 µM iodophenpropit
T1 construct: Sections (20 µm) cut from a frozen rat brain were pre-incubated in Tris-HCl buffer; from tissue
T1 sequence (Q9QYN8 whole entry): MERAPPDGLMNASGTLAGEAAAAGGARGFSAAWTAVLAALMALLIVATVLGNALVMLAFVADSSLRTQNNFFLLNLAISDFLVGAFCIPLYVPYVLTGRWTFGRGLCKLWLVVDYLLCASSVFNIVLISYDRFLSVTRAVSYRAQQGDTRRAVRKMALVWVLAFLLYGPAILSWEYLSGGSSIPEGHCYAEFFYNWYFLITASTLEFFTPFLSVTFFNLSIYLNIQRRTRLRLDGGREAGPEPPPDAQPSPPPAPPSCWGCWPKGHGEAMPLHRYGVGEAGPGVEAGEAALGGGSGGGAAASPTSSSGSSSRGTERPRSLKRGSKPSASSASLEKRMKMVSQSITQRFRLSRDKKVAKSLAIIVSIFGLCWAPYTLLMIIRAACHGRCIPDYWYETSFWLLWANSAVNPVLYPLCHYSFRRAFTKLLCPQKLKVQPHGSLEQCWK
Experimental: Sections (20 µm) cut from a frozen rat brain were pre-incubated in Tris-HCl buffer (50 mM, pH 7.4; EDTA 5 mM) for 15 min then incubated in 5 nM [^125I]WYE-230949 for 90 min at room temperature. Non-specific binding was defined in adjacent sections in the presence of 5 µM iodophenpropit dihydrobromide. Sections were washed (2×30 min in Tris buffer) and briefly (15 s) rinsed in distilled water before drying and apposition to Kodak Biomax for 24 h. These autoradiograms were generated only for visual comparison with those obtained ex vivo.

[4] = target: T2, rat histamine H3 receptor (Rattus norvegicus, UniProt Q9QYN8); experiment: In vitro saturation radioligand binding to rat brain homogenates
T2 construct: from tissue; host or cells: whole brain of male Sprague-Dawley rats, homogenate pellet
T2 sequence (Q9QYN8 whole entry): as above
Experimental: Animals (male Sprague-Dawley rats; Harlan, UK) were killed by cervical dislocation. Whole brains were immediately excised and placed into ice-cold Tris-HCl buffer (Tris […], pH 7.4; EDTA 5 mM), homogenised and centrifuged at approx 40,000 g for 10 min at 4°C (Beckman J2-21M/E). The pellet was resuspended in 25 ml of buffer and centrifuged as previously, then the final pellet was resuspended in 10 ml of ice cold Tris buffer and stored at −50°C until required. Protein content was analysed using Bio-Rad reagent; absorbance was read on a spectrophotometer at 562 nm. [^125I]WYE230949 binding assays were carried out in a final incubation volume of 500 µl containing Tris-HCl buffer (Tris […], pH 7.4; EDTA 5 mM), brain homogenates (1.47 to 2.27 mg/ml of protein) and [^125I]WYE230949 (0.04–102 nM). Non-specific binding was defined in the presence of 10 µM iodophenpropit. Samples were incubated at 30°C for 30 min, then filtered rapidly through Whatman GF/B filters (pre-treated with 0.3% polyethylenimine; Aldrich, UK) using a Brandel M24R cell harvester and the filters washed with 3×4 ml ice-cold Tris buffer. Radioactivity on the filters was determined by liquid scintillation counting a minimum of 48 h after filtration. All assays were performed in triplicate. Specific binding was determined by subtracting non-specific binding from total binding at each concentration; Kd and Bmax values derived using GraphPad Prism (version 4.03), and expressed as mean ±SEM of the triplicate assays.

**Q.** For O=C(c1ccc(Cn2cnc3cccc([125I])c32)cc1)N1CC[C@H](N2CCCC2)C1 [[^125I]WYE-230949], which “parent compound remaining in plasma” value ([1]; 30 minutes after injection) is on record?
**A.** less than 38%

**Q.** What about the “Percentage of parent compound detected” value ([1]; Brain, 30 min, anaesthetised) of the same molecule?
**A.** 27±4 (n = 3) %

**Q.** And the “Percentage of parent compound detected” value ([1]; Brain, 30 min, conscious)?
**A.** 46±2 (n = 4) %

**Q.** What about the “Percentage of parent compound detected” value ([1]; Brain, 120 min, anaesthetised) of the same molecule?
**A.** 32±5 (n = 3) %

**Q.** What about the “Percentage of parent compound detected” value ([1]; Brain, 120 min, conscious) of the same molecule?
**A.** 36±6 (n = 4) %

**Q.** What about the “Percentage of parent compound detected” value ([1]; Plasma, 30 min, anaesthetised) of the same molecule?
**A.** 14±2 (n = 4) %

**Q.** What about the “Percentage of parent compound detected” value ([1]; Plasma, 30 min, conscious) of the same molecule?
**A.** 38±9 (n = 6) %

**Q.** And the “Percentage of parent compound detected” value ([1]; Plasma, 120 min, anaesthetised)?
**A.** 3±3 (n = 4) %

**Q.** What about the “Percentage of parent compound detected” value ([1]; Plasma, 120 min, conscious) of the same molecule?
**A.** 8±5 (n = 4) %

**Q.** And the “parent compound remaining in plasma” value ([1]; after 120 min)?
**A.** less than 8%

**Q.** What about the brain uptake ([2]; 30 min, anaesthetised rats) of the same molecule?
**A.** 0.11 %ID/g

**Q.** And the brain uptake ([2]; 30 min, conscious rats)?
**A.** 0.06±0.01 %ID/g

**Q.** And the brain uptake ([2]; 120 min, anaesthetised rats)?
**A.** 0.06±0.01 %ID/g

**Q.** And the brain uptake ([2]; 120 min, conscious rats)?
**A.** 0.03±0.003 %ID/g

**Q.** And the “peak radioactivity in plasma” value ([2]; anaesthetised rats, n = 6)?
**A.** 4.04±1.14 %ID/g of tissue

**Q.** What about the “peak radioactivity in whole blood” value ([2]; anaesthetised rats, n = 6) of the same molecule?
**A.** 3.14±0.26 %ID/g of tissue

**Q.** What about the “time of peak radioactivity in plasma” value ([2]; anaesthetised rats, n = 6) of the same molecule?
**A.** 0.38 ± 0.02 min

**Q.** And the “time of peak radioactivity in whole blood” value ([2]; anaesthetised rats, n = 6)?
**A.** 0.50 ± 0.03 min

**Q.** What about the “regional distribution of binding in rat brain” value [3] of the same molecule?
**A.** corresponded with known histamine H3 receptor distribution

**Q.** What about the “Non-specific binding as % of total binding” value ([4]; at 6.6±0.1 nM, defined with 10 µM iodophenpropit, n = 3) of the same molecule?
**A.** 39±3%

**Q.** What about the Bmax ([4]; whole rat brain homogenates, one-site binding model, n = 8) of the same molecule?
**A.** 508.6±34.9 fmol/mg protein and 509 fmol/mg protein
